Experimental data taken from paper PMC7738871, “Covalent modification of Keap1 at Cys77 and Cys434 by pubescenoside a suppresses oxidative stress-induced NLRP3 inflammasome activation in myocardial ischemia-reperfusion injury” (Theranostics, 2021).

Key:
[1] = biological target: T1, Keap1 C77S (Homo sapiens, UniProt Q14145, C77S); assay: ITC titration of PBA with Keap1-C77S; assay type: binding; details: 25 ℃
T1 construct: His (N); made in house; host or cells: E. coli BL21 (DE3)
Protocol: The Keap1 was amplified by PCR using a human cDNA library, and was subcloned into the vector pET28-TEV, which contained one tobacco etch virus (TEV) protease cleavage site at the upstream multiple cloning site. The protein was expressed in E. coli BL21 (DE3) cells and incubated at 37 °C until the OD600 value reached 0.6, using 0.2 mM isopropyl β-D-1-thiogalactopyranoside (IPTG) overnight induction at 18 °C. The cells were isolated by centrifugation, resuspended in ice-cold lysis buffer and lysed by cryogenic overpressure cell breaker at 1,200 psi. The lysates were centrifuged for 60 min at 14,000 rpm to obtain the supernatant. Gravity flow purification of Keap1 protein was obtained at room temperature using 1 mL of Ni-NTA and eluted in buffer containing 250 mM imidazole, followed by 1 mL of HiTrap QHP for the second step purification. The final protein was purified and validated by Superdex 200 10/300GL resin.
The mutant plasmid DNA was obtained by PCR. The PCR products were cleaved by DpnI restriction enzymes. The restriction endonuclease-cleaved mixture was subsequently transformed into E. coli DH5α. Colonies were evaluated by colony PCR and sequenced. The mutant plasmid was transformed into E. coli BL21 (DE3) after successful sequencing. The steps for expression and purification of all recombinants were described above.
Isothermal calorimetry (ITC) titration experiments were performed at 25 °C. WT Keap1, Keap1 mutants and PBA were dissolved in binding buffer (40 mM Tris-HCl pH 8.0, 250 mM NaCl). In a typical experiment, 60 μL of PBA (1 mM) was injected 19 times at 2-min intervals from a stirring syringe into the sample cell containing 300 μL of WT protein or mutants (30 μM). The first injection was 0.4 μL of PBA, and the subsequent 18 injections were 2 μL each time. The site-binding models were determined by using MicroCal Origin software.

[2] = test system: Nrf2-/- mice under AMI/R injury; assay: LAD-induced AMI/R in Nrf2-/- mice; assay type: in vivo, mouse
Protocol: The experimental procedures and protocols were approved by the Committee on Ethical USE of Animals of International Institute for Translational Chinese Medicine, Guangzhou University of Chinese Medicine (No. IITCM-20180115). Adult male C57BL/6 mice were purchased from the Laboratory Animal Center, Sun Yat-Sen University (Guangzhou, Guangdong, China), and Nrf2 knockout mice were obtained from Riken. Adult male C57BL/6 or Nrf2 knockout mice were treated with 30 mg/kg PBA or an equal volume of vehicle 15 min prior to reperfusion. Mice were divided into 6 groups: (1) Wild-type sham (n = 10): C57BL/6 mice received vehicle, as the sham group; (2) Wild-type AMI/R group (n = 10): C57BL/6 mice received vehicle (i.p.) 15 min before reperfusion; (3) Wild-type AMI/R plus PBA group (n = 10): C57BL/6 mice received 30 mg/kg PBA (i.p.) 15 min before reperfusion; (4) Nrf2 knockout sham (n = 8) : Nrf2 knockout mice received vehicle (i.p.), as in the sham group; (5) Nrf2 knockout AMI/R group (n = 8): Nrf2 knockout mice received vehicle (i.p.) 15 min before reperfusion; (6) Nrf2 knockout AMI/R plus PBA group (n = 8): Nrf2 knockout mice received 30 mg/kg PBA (i.p.) 15 min before reperfusion. PBA was dissolved in 0.9% NaCl buffer containing 2% EtOH. The vehicle was 0.9% NaCl buffer containing 2% EtOH.
The C57BL/6 mice or Nrf2 knockout mice underwent myocardial ischemia-reperfusion injury as described previously. In brief, mice were anaesthetized by i.p. injection of sodium pentobarbital at a dose of 50 mg/kg and ventilated under a pressure-control VentStar R415 ventilator (RWD Life Science Inc., Shenzhen, China). Following thoracotomy between the 3rd and 4th intercostal spaces, the mouse heart was exposed. The LAD was ligated with an 8-0 silk suture and the PE10 tube for 30 min. PBA and vehicle were i.p. injected 15 min prior to reperfusion. After 30 min of ischemia, the suture with PE10 tube was removed. At the end of 24 h of reperfusion, the LAD was relegated, and 1% Evans blue dye was injected to measure the area at risk (AAR). The hearts of the mice were collected, and frozen at -80 °C for 10 min and cut into 5 slices. The slices were incubated with 1% 2,3,5-triphenyltetrazolium chloride (TTC, Santa Cruz, USA) at 37 °C for 15 min and fixed with 4% paraformaldehyde overnight. The slices were captured and the areas of AAR and IA were quantified by using ImageJ software.
Hemodynamic measurements were performed using a PV-loop catheter (Transonic Systems Inc., Ithaca, NY, USA). Hemodynamic measurements were analysed using Ponemah 7700 modules software according to a standardized protocol. The maximum rate of rise of left ventricular pressure increase (+dp/dtmax) and the maximum rate of rise of left ventricular pressure decrease (-dp/dtmax) were calculated for all mice.

T1 sequence (Q14145 whole entry C77S): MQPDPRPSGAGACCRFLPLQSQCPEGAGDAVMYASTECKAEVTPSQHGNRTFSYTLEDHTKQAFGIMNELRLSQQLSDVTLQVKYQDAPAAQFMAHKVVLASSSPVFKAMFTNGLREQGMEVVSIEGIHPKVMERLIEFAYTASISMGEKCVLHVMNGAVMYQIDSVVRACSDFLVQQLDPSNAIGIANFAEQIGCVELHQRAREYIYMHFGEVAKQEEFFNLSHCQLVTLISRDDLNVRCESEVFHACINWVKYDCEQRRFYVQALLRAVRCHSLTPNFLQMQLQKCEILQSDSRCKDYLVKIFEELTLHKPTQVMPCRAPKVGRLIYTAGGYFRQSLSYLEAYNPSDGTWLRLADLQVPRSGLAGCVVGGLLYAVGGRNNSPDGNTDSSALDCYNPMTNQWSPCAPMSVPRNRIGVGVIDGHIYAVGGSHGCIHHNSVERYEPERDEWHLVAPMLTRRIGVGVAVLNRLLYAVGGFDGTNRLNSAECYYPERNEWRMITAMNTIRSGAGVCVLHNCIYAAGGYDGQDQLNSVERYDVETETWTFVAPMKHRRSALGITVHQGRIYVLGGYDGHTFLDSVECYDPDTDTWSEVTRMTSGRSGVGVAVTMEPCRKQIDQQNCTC

Kd [1]: 19.5 µM
T△S [1]: 0.78 ± 0.00 kcal/mol
△G [1]: -6.43 ± 0.00 kcal/mol
△H [1]: -5.65 ± 0.866 kcal/mol
Structure (SMILES): C=C(COC(=O)C=Cc1ccc(O)c(O)c1)C(O)COC1OC(CO)C(O)C(O)C1O (stereo not drawn) [PBA, pubescenoside A]
inflammatory cells infiltration and disturbed myofibrillar structure (H&E staining) [2]: could not suppress
cardioprotective effect ([2]; 30 mg/kg i.p., AMI/R): disappeared
decrease effect of CK-MB level ([2]; 30 mg/kg i.p., AMI/R): blocked
increase effect of -dp/dtmax and -dp/dtmax ([2]; 30 mg/kg i.p., AMI/R): blocked
suppressive effect on the NLRP3 inflammasome in heart tissue ([2]; WB analysis): blocked
